Data as given in PubChem BioAssay (NCI).
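These data come from cells grown in 96-well plates and exposed to compound for 48 hours at five concentrations. Here, GI50 denotes the concentration required for 50% inhibition of growth. The concentration for full growth arrest is given as TGI.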

Tested on: RXF 393 renal
Experiment: NCI-60 cell line screen, 48 h

Compound | GI50 | TGI
CC(C)=CCC/C(C)=C/CC/C(C)=C/CC/C=C(\C)CC/C=C(\C)CCC(=O)Nc1ccn(C2OC(CO)C(O)C2(F)F)c(=O)n1 (centres undefined) | 1.09 µM | 7.15 µM
COc1ccc(-c2cc(=O)c3c(OC)c(OC)c(OC)c(OC)c3o2)cc1 |  | > 100 µM
Cc1c(C2=C(c3cn(C)c4ccccc34)C(=O)NC2=O)c2ccccc2n1C | 1.38 µM | 19.6 µM
CC1(C)CCC[C@]2(C)[C@@H](C=O)C(C=O)=CC[C@@H]12 |  | 34.6 µM
CCn1c2ccccc2c2cc(/C=C(/C#N)C(N)=O)ccc21 | 2.57 µM | 19.3 µM
COc1ccc(C(=O)N2c3ccccc3Sc3ccccc32)c(OC)c1 | 0.413 µM | > 100 µM
CCN1C(=O)N(CC)C2C1NN=c1s/c(=C3\C(=O)N(CCc4ccccc4)c4ccccc43)c(=O)n12 (centres undefined) | 0.262 µM | 1.01 µM
CN(C)c1ccc(N=Nc2ccncc2)cc1 |  | > 100 µM
CC1(C)N=C(N)N=C(N)N1c1ccc(CCCCc2ccc(S(=O)(=O)F)cc2)c(Cl)c1 | 0.0862 µM | > 61.2 µM
N#CN1CC[C@H](C(=O)Nc2ncc(-c3ccncc3)s2)C1 | 0.0238 µM | 0.242 µM
Cn1cc(-c2nonc2-c2cn(C)c3ccccc23)c2ccccc21 | 0.827 µM | 21.9 µM
CN(CCCCCl)P(=O)(OCCS(=O)(=O)CC(NC(=O)CCC(N)C(=O)O)C(=O)NC(C(=O)O)c1ccccc1)OCC1OC(n2cc(F)c(=O)[nH]c2=O)CC1O (centres undefined) | 4 µM | > 100 µM
CCN(CCO)CC(C)Nc1ccc([N+](=O)[O-])c2sc3ccccc3c(=O)c12 (centres undefined) | 1.89 µM | 8 µM
COC(=O)c1nc(-c2ccccc2)oc1S(=O)(=O)n1nc(C)cc1N | 11.9 µM | 24.7 µM
CCCCCn1sc(=O)n(Cc2ccc(CNC(=O)OCc3ccc4cccc(O)c4n3)cc2)c1=O | 1.37 µM | 2.67 µM
Cn1cncc1CC1COC(=O)C1C(O)c1ccccc1 (centres undefined) |  | > 100 µM
CN1CCN(Cc2ccc(NC(=O)c3[nH]ncc3Nc3ncnc4sc5c(c34)CCCC5)cc2)CC1 | 0.229 µM | 0.949 µM
CCCCn1c(=O)c2c(nc3n2CCCN3CCc2ccc(OCC(=O)NCCN(CC)CC)cc2)n(CCCC)c1=O | 1.65 µM | 6.76 µM

Tested on: OVCAR-4 ovarian
Experiment: NCI-60 cell line screen, 48 h

Compound | GI50 | TGI
CC(C)=CCC/C(C)=C/CC/C(C)=C/CC/C=C(\C)CC/C=C(\C)CCC(=O)Nc1ccn(C2OC(CO)C(O)C2(F)F)c(=O)n1 (centres undefined) | 1.91 µM | 8.67 µM
COc1ccc(-c2cc(=O)c3c(OC)c(OC)c(OC)c(OC)c3o2)cc1 |  | > 100 µM
Cc1c(C2=C(c3cn(C)c4ccccc34)C(=O)NC2=O)c2ccccc2n1C | 9.22 µM | > 25 µM
CC1(C)CCC[C@]2(C)[C@@H](C=O)C(C=O)=CC[C@@H]12 |  | 44.9 µM
CCn1c2ccccc2c2cc(/C=C(/C#N)C(N)=O)ccc21 | 6.54 µM | > 100 µM
COc1ccc(C(=O)N2c3ccccc3Sc3ccccc32)c(OC)c1 | 3.17 µM | > 100 µM
CCN1C(=O)N(CC)C2C1NN=c1s/c(=C3\C(=O)N(CCc4ccccc4)c4ccccc43)c(=O)n12 (centres undefined) | 1.13 µM | > 100 µM
CN(C)c1ccc(N=Nc2ccncc2)cc1 |  | > 100 µM
CC1(C)N=C(N)N=C(N)N1c1ccc(CCCCc2ccc(S(=O)(=O)F)cc2)c(Cl)c1 | 5.18 µM | 22 µM
N#CN1CC[C@H](C(=O)Nc2ncc(-c3ccncc3)s2)C1 | < 0.027 µM | 7.07 µM
Cn1cc(-c2nonc2-c2cn(C)c3ccccc23)c2ccccc21 | 2.74 µM | > 100 µM
CN(CCCCCl)P(=O)(OCCS(=O)(=O)CC(NC(=O)CCC(N)C(=O)O)C(=O)NC(C(=O)O)c1ccccc1)OCC1OC(n2cc(F)c(=O)[nH]c2=O)CC1O (centres undefined) | 8.27 µM | > 100 µM
CCN(CCO)CC(C)Nc1ccc([N+](=O)[O-])c2sc3ccccc3c(=O)c12 (centres undefined) | 3.32 µM | 15.7 µM
COC(=O)c1nc(-c2ccccc2)oc1S(=O)(=O)n1nc(C)cc1N | 16.2 µM | 36 µM
CCCCCn1sc(=O)n(Cc2ccc(CNC(=O)OCc3ccc4cccc(O)c4n3)cc2)c1=O | 1.67 µM | 3.21 µM
Cn1cncc1CC1COC(=O)C1C(O)c1ccccc1 (centres undefined) |  | > 100 µM
CN1CCN(Cc2ccc(NC(=O)c3[nH]ncc3Nc3ncnc4sc5c(c34)CCCC5)cc2)CC1 | 0.327 µM | 1.84 µM
CCCCn1c(=O)c2c(nc3n2CCCN3CCc2ccc(OCC(=O)NCCN(CC)CC)cc2)n(CCCC)c1=O | 2.61 µM | 9.76 µM

Tested on: SF-268 CNS
Experiment: NCI-60 cell line screen, 48 h

Compound | GI50 | TGI
CC(C)=CCC/C(C)=C/CC/C(C)=C/CC/C=C(\C)CC/C=C(\C)CCC(=O)Nc1ccn(C2OC(CO)C(O)C2(F)F)c(=O)n1 (centres undefined) | 0.0853 µM | 3.51 µM
COc1ccc(-c2cc(=O)c3c(OC)c(OC)c(OC)c(OC)c3o2)cc1 |  | > 100 µM
Cc1c(C2=C(c3cn(C)c4ccccc34)C(=O)NC2=O)c2ccccc2n1C | 4.82 µM | > 25 µM
CC1(C)CCC[C@]2(C)[C@@H](C=O)C(C=O)=CC[C@@H]12 |  | 55.8 µM
CCn1c2ccccc2c2cc(/C=C(/C#N)C(N)=O)ccc21 | 19.9 µM | > 100 µM
COc1ccc(C(=O)N2c3ccccc3Sc3ccccc32)c(OC)c1 | 0.853 µM | > 100 µM
CCN1C(=O)N(CC)C2C1NN=c1s/c(=C3\C(=O)N(CCc4ccccc4)c4ccccc43)c(=O)n12 (centres undefined) | 1.95 µM | 27.4 µM
CN(C)c1ccc(N=Nc2ccncc2)cc1 |  | > 100 µM
CC1(C)N=C(N)N=C(N)N1c1ccc(CCCCc2ccc(S(=O)(=O)F)cc2)c(Cl)c1 | 0.225 µM | 19.5 µM
N#CN1CC[C@H](C(=O)Nc2ncc(-c3ccncc3)s2)C1 | 0.127 µM | 6.96 µM
Cn1cc(-c2nonc2-c2cn(C)c3ccccc23)c2ccccc21 | 1.6 µM | > 100 µM
CN(CCCCCl)P(=O)(OCCS(=O)(=O)CC(NC(=O)CCC(N)C(=O)O)C(=O)NC(C(=O)O)c1ccccc1)OCC1OC(n2cc(F)c(=O)[nH]c2=O)CC1O (centres undefined) | < 0.01 µM | 
CCN(CCO)CC(C)Nc1ccc([N+](=O)[O-])c2sc3ccccc3c(=O)c12 (centres undefined) | 1.98 µM | 11.5 µM
COC(=O)c1nc(-c2ccccc2)oc1S(=O)(=O)n1nc(C)cc1N | 18.9 µM | 41.3 µM
CCCCCn1sc(=O)n(Cc2ccc(CNC(=O)OCc3ccc4cccc(O)c4n3)cc2)c1=O | 1.82 µM | 4.14 µM
Cn1cncc1CC1COC(=O)C1C(O)c1ccccc1 (centres undefined) |  | > 100 µM
CN1CCN(Cc2ccc(NC(=O)c3[nH]ncc3Nc3ncnc4sc5c(c34)CCCC5)cc2)CC1 | 0.438 µM | 2 µM
CCCCn1c(=O)c2c(nc3n2CCCN3CCc2ccc(OCC(=O)NCCN(CC)CC)cc2)n(CCCC)c1=O | 5.16 µM | 12.8 µM

Tested on: MDA-MB-231 breast
Experiment: NCI-60 cell line screen, 48 h

Compound | GI50 | TGI
CC(C)=CCC/C(C)=C/CC/C(C)=C/CC/C=C(\C)CC/C=C(\C)CCC(=O)Nc1ccn(C2OC(CO)C(O)C2(F)F)c(=O)n1 (centres undefined) | 12.8 µM | 27.1 µM
COc1ccc(-c2cc(=O)c3c(OC)c(OC)c(OC)c(OC)c3o2)cc1 |  | > 100 µM
Cc1c(C2=C(c3cn(C)c4ccccc34)C(=O)NC2=O)c2ccccc2n1C | > 18.6 µM | > 25 µM
CC1(C)CCC[C@]2(C)[C@@H](C=O)C(C=O)=CC[C@@H]12 |  | 23.1 µM
CCn1c2ccccc2c2cc(/C=C(/C#N)C(N)=O)ccc21 | 21 µM | > 100 µM
COc1ccc(C(=O)N2c3ccccc3Sc3ccccc32)c(OC)c1 | 0.83 µM | > 100 µM
CCN1C(=O)N(CC)C2C1NN=c1s/c(=C3\C(=O)N(CCc4ccccc4)c4ccccc43)c(=O)n12 (centres undefined) | 0.844 µM | 7.51 µM
CN(C)c1ccc(N=Nc2ccncc2)cc1 |  | > 100 µM
CC1(C)N=C(N)N=C(N)N1c1ccc(CCCCc2ccc(S(=O)(=O)F)cc2)c(Cl)c1 | 1.76 µM | 21.2 µM
N#CN1CC[C@H](C(=O)Nc2ncc(-c3ccncc3)s2)C1 | < 0.0266 µM | > 50.2 µM
Cn1cc(-c2nonc2-c2cn(C)c3ccccc23)c2ccccc21 | 1.35 µM | > 100 µM
CN(CCCCCl)P(=O)(OCCS(=O)(=O)CC(NC(=O)CCC(N)C(=O)O)C(=O)NC(C(=O)O)c1ccccc1)OCC1OC(n2cc(F)c(=O)[nH]c2=O)CC1O (centres undefined) | 8.96 µM | 68.6 µM
CCN(CCO)CC(C)Nc1ccc([N+](=O)[O-])c2sc3ccccc3c(=O)c12 (centres undefined) | 2.6 µM | 12.3 µM
COC(=O)c1nc(-c2ccccc2)oc1S(=O)(=O)n1nc(C)cc1N | 9.03 µM | 21.8 µM
CCCCCn1sc(=O)n(Cc2ccc(CNC(=O)OCc3ccc4cccc(O)c4n3)cc2)c1=O | 1.32 µM | 2.63 µM
Cn1cncc1CC1COC(=O)C1C(O)c1ccccc1 (centres undefined) |  | > 100 µM
CN1CCN(Cc2ccc(NC(=O)c3[nH]ncc3Nc3ncnc4sc5c(c34)CCCC5)cc2)CC1 | 0.333 µM | 1.45 µM
CCCCn1c(=O)c2c(nc3n2CCCN3CCc2ccc(OCC(=O)NCCN(CC)CC)cc2)n(CCCC)c1=O | 1.91 µM | 7.26 µM

Tested on: OVCAR-8 ovarian
Experiment: NCI-60 cell line screen, 48 h

Compound | GI50 | TGI
CC(C)=CCC/C(C)=C/CC/C(C)=C/CC/C=C(\C)CC/C=C(\C)CCC(=O)Nc1ccn(C2OC(CO)C(O)C2(F)F)c(=O)n1 (centres undefined) | 0.0652 µM | > 100 µM
COc1ccc(-c2cc(=O)c3c(OC)c(OC)c(OC)c(OC)c3o2)cc1 |  | > 100 µM
Cc1c(C2=C(c3cn(C)c4ccccc34)C(=O)NC2=O)c2ccccc2n1C | 10.8 µM | > 25 µM
CC1(C)CCC[C@]2(C)[C@@H](C=O)C(C=O)=CC[C@@H]12 |  | 31.2 µM
CCn1c2ccccc2c2cc(/C=C(/C#N)C(N)=O)ccc21 | 42.6 µM | > 100 µM
COc1ccc(C(=O)N2c3ccccc3Sc3ccccc32)c(OC)c1 | 0.749 µM | > 100 µM
CCN1C(=O)N(CC)C2C1NN=c1s/c(=C3\C(=O)N(CCc4ccccc4)c4ccccc43)c(=O)n12 (centres undefined) | 0.74 µM | > 43.1 µM
CN(C)c1ccc(N=Nc2ccncc2)cc1 |  | > 100 µM
CC1(C)N=C(N)N=C(N)N1c1ccc(CCCCc2ccc(S(=O)(=O)F)cc2)c(Cl)c1 | 0.452 µM | 18.4 µM
N#CN1CC[C@H](C(=O)Nc2ncc(-c3ccncc3)s2)C1 | 0.0596 µM | > 100 µM
Cn1cc(-c2nonc2-c2cn(C)c3ccccc23)c2ccccc21 | 1.5 µM | > 100 µM
CN(CCCCCl)P(=O)(OCCS(=O)(=O)CC(NC(=O)CCC(N)C(=O)O)C(=O)NC(C(=O)O)c1ccccc1)OCC1OC(n2cc(F)c(=O)[nH]c2=O)CC1O (centres undefined) | 0.274 µM | > 100 µM
CCN(CCO)CC(C)Nc1ccc([N+](=O)[O-])c2sc3ccccc3c(=O)c12 (centres undefined) | 1.18 µM | 4.19 µM
COC(=O)c1nc(-c2ccccc2)oc1S(=O)(=O)n1nc(C)cc1N | 19.7 µM | 50.3 µM
CCCCCn1sc(=O)n(Cc2ccc(CNC(=O)OCc3ccc4cccc(O)c4n3)cc2)c1=O | 1.85 µM | 9.89 µM
Cn1cncc1CC1COC(=O)C1C(O)c1ccccc1 (centres undefined) |  | > 100 µM
CN1CCN(Cc2ccc(NC(=O)c3[nH]ncc3Nc3ncnc4sc5c(c34)CCCC5)cc2)CC1 | 0.413 µM | 2.52 µM
CCCCn1c(=O)c2c(nc3n2CCCN3CCc2ccc(OCC(=O)NCCN(CC)CC)cc2)n(CCCC)c1=O | 7.1 µM | 26.4 µM
